Assay [1] addresses T1, Cannabinoid receptor 2 (Homo sapiens, UniProt P34972). The assay is described as follows: Antagonist activity at CB2 receptor expressed in HL60 cells assessed as abrogation of 2-archidonoylglycerol-induced increase in intracellular free calcium levels. It counts as functional, cell-based. The note with it: HL-60.
The target of assay [2] is T1, Cannabinoid receptor 2. The assay is described as follows: Agonist activity at CB2 receptor expressed in HL60 cells assessed as increase in intracellular free calcium concentrations. In kind it is functional, cell-based, HL-60.
Assay [3] addresses Cannabinoid receptor 1 (Homo sapiens) (UniProt P21554). The assay is described as follows: Antagonist activity at CB1 receptor expressed in NG108-15 cells assessed as abrogation of 2-archidonoylglycerol-induced increase in intracellular free calcium levels. In kind it is functional, cell-based.

Activity and EC50 data for 1 compound are collected here from ChEMBL document CHEMBL1144569 (Bioorg Med Chem, 2007).

The source made the active and inactive calls. The calls are words filed in the database; no cut-off is given here.

T1 sequence (P34972 whole entry): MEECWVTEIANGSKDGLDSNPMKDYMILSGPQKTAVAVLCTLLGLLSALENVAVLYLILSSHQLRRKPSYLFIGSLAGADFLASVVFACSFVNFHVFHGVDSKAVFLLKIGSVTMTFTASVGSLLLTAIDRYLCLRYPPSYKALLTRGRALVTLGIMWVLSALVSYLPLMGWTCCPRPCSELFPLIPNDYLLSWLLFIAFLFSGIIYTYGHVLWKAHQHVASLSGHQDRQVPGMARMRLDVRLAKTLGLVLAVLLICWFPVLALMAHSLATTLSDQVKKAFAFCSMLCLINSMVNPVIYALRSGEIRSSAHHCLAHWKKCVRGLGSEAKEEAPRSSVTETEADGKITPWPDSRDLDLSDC
Sequence of Cannabinoid receptor 1 (Homo sapiens) (P21554 whole entry): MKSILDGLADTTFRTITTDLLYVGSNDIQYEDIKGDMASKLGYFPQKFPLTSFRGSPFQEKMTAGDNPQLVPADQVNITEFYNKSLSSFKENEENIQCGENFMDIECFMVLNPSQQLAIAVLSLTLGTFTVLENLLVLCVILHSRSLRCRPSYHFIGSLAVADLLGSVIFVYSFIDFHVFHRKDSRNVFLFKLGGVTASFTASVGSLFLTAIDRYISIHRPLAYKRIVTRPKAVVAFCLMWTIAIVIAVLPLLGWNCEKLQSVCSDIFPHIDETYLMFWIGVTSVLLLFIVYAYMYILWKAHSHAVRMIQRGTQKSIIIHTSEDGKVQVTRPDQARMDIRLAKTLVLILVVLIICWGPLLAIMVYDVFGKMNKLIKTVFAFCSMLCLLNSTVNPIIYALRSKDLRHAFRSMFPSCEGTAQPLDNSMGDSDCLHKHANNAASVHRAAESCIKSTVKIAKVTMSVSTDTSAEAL

As a reminder, the EC50 is the concentration giving half of the maximal effect. As for `CCCCC/C=C\C/C=C\C/C=C\C/C=C\CCCC(=O)OC(CO)CO` [2-ARACHIDONOYLGLYCEROL], the outcome (at Cannabinoid receptor 2 [1]; in assay [3]) was Active. Further, on Cannabinoid receptor 2 [2], the EC50 was determined as 17 nM.
